In article PMC10692473 (Acta Pharmaceutica Sinica. B, 2023) one finds IC50 and MIC data, which are given here for 21 compounds.

Each structure is given as a SMILES string. Values after ≈ are worked out from the molar mass of the structure shown.

The target in experiment [1] is S. aureus gyrase (Staphylococcus aureus, UniProt P0A0K8). As to the kind of experiment: Gyrase inhibitory assay. Format: biochemical.
Experiment [2] deals with E. coli gyrase (Escherichia coli, UniProt P0AES6). As to the kind of experiment: Gyrase inhibitory assay. Format: biochemical.
For experiment [3], the system named is S. aureus (ATCC29213). In words: Antibacterial assay. The conditions noted are these: Staphylococcus aureus, ATCC29213, read-out: MIC S. aureus (ATCC29213).
The test system of experiment [4] is E. coli (ATCC25922). In words: Antibacterial assay. To be noted: Escherichia coli, ATCC25922, read-out: MIC E. coli (ATCC25922).

S. aureus gyrase, sequence (P0A0K8 whole entry): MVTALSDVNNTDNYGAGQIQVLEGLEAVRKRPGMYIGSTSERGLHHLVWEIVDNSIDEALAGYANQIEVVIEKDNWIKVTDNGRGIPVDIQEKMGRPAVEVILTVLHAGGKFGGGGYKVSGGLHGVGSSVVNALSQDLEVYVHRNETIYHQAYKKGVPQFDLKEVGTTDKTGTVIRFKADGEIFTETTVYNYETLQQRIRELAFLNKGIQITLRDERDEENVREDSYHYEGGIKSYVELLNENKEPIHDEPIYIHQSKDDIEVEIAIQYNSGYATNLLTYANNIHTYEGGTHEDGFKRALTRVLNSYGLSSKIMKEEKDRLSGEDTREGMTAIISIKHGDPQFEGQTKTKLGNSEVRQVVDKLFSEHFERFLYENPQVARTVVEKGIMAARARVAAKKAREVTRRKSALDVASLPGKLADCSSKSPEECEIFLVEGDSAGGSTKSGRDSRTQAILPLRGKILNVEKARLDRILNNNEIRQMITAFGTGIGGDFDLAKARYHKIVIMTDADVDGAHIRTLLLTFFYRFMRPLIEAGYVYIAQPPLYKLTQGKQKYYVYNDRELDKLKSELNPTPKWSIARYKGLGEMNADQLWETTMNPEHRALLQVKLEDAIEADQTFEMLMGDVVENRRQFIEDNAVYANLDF
S. aureus gyrase, sequence (P20831 whole entry partner): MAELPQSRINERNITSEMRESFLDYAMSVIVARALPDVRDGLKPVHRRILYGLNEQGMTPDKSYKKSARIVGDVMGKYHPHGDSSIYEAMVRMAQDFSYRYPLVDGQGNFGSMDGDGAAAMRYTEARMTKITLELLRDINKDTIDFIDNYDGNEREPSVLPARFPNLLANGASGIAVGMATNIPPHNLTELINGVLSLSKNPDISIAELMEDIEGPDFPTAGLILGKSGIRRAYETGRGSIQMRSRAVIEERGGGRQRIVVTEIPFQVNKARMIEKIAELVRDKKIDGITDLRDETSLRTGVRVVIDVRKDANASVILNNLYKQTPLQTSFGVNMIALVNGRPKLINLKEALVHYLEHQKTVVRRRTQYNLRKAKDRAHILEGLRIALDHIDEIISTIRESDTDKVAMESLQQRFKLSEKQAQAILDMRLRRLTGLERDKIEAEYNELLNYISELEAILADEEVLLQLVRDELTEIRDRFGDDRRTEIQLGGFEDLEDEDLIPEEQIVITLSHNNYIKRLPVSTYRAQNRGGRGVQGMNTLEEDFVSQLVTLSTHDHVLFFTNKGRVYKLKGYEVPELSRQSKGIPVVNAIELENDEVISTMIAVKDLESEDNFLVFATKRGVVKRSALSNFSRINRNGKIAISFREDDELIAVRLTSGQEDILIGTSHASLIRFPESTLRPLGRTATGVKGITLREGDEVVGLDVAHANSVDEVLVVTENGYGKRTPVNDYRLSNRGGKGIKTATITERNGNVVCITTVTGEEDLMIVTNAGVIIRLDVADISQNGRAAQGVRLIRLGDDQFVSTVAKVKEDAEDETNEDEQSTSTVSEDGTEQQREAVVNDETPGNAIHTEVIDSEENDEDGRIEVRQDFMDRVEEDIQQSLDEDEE

For `COC(=O)c1cnc(N2CC[C@@H](NC(=O)c3[nH]c(C)c(Cl)c3Cl)[C@@H](OC)C2)s1` [Compound 9, Methyl 2-((3S,4R)-4-(3,4-dichloro-5-methyl-1H-pyrrole-2-carboxamido)-3-methoxypiperidin-1-yl)thiazole-5-carboxylate], the IC50 in experiment [1] is 1.45 ± 0.111 µM; in experiment [2], greater than 10 µM. Also, the MIC in experiment [3] was 0.125 µg/mL (≈ 0.279 µM); in experiment [4] it was greater than 128 µg/mL.

Take `CCOC(=O)c1nnc(N2CC[C@@H](NC(=O)c3[nH]c(C)c(Cl)c3Cl)[C@@H](OC)C2)s1` [Compound 10, Ethyl 5-((3S,4R)-4-(3,4-dichloro-5-methyl-1H-pyrrole-2-carboxamido)-3-methoxy-piperidin-1-yl)-1,3,4-thiadiazole-2-carboxylate]: the half-inhibitory concentration (IC50) in experiment [1] is 0.137 ± 0.013 µM; in experiment [2] it was 6.87 ± 1.22 µM. Moreover, the MIC in experiment [3] stood at 0.125 µg/mL (≈ 0.27 µM); in experiment [4] it was 16 µg/mL (≈ 34.6 µM).

As for `COC(=O)c1ccc(N2CC[C@@H](NC(=O)c3[nH]c(C)c(Cl)c3Cl)[C@@H](OC)C2)nc1` [Compound 11, Methyl 6-((3S,4R)-4-(3,4-dichloro-5-methyl-1H-pyrrole-2-carboxamido)-3-methoxy-piperidin-1-yl)nicotinate], the concentration for half-maximal inhibition (IC50) in experiment [1] was 3.35 ± 0.154 µM; in experiment [2], greater than 10 µM. For the same compound, the minimal inhibitory concentration (MIC) was 1 µg/mL (≈ 2.27 µM) in experiment [3] and greater than 128 µg/mL in experiment [4].

In the case of `CCOC(=O)c1cnc(N2CC[C@@H](NC(=O)c3[nH]c(C)c(Cl)c3Cl)[C@@H](OC)C2)nc1` [Compound 12, Ethyl 2-((3S,4R)-4-(3,4-dichloro-5-methyl-1H-pyrrole-2-carboxamido)-3-methoxy-piperidin-1-yl)pyrimidine-5-carboxylate], the IC50 in experiment [1] was 4.87 ± 0.02 µM; in experiment [2], greater than 10 µM. The MIC is 0.125 µg/mL (≈ 0.274 µM) in experiment [3] and greater than 128 µg/mL in experiment [4].

Turning to `COC(=O)c1cnc(N2CC[C@@H](NC(=O)c3[nH]c(C)c(Cl)c3Cl)[C@@H](OC)C2)cn1` [Compound 13, Methyl-5-((3S,4R)-4-(3,4-dichloro-5-methyl-1H-pyrrole-2-carboxamido)-3-methoxypiperidin-1-yl)pyrazine-2-carboxylate], the IC50 in experiment [1] and in experiment [2] was greater than 10 µM each time. The MIC in experiment [3] and in experiment [4] was greater than 128 µg/mL each time.

On to `CCOC(=O)c1nnc(N2CC[C@@H](NC(=O)c3[nH]c(C)c(Cl)c3Cl)[C@@H](OC)C2)o1` [Compound 16, Ethyl-5-((3S,4R)-4-(3,4-dichloro-5-methyl-1H-pyrrole-2-carboxamido)-3-methoxypiperidin-1-yl)-1,3,4-oxadiazole-2-carboxylate], for which the IC50 in experiment [1] is 2.34 µM; in experiment [2], greater than 10 µM. The figures for the MIC in experiment [3] and in experiment [4] were 0.5 µg/mL (≈ 1.12 µM) and 128 µg/mL (≈ 287 µM), respectively.

As to `CO[C@H]1CN(c2ccc(F)nn2)CC[C@H]1NC(=O)c1[nH]c(C)c(Cl)c1Cl` [Compound 17, 3,4-Dichloro-N-((3S,4R)-1-(6-fluoropyridazin-3-yl)-3-methoxypiperidin-4-yl)-5-methyl-1H-pyrrole-2-carboxamide], the figures for the IC50 in experiment [1] and in experiment [2] were 0.084 ± 0.037 µM and 8.21 ± 1.21 µM, respectively. For the same compound, the minimum inhibitory concentration (MIC) in experiment [3] was found to be 0.25 µg/mL (≈ 0.621 µM); in experiment [4], 16 µg/mL (≈ 39.8 µM).

On to `CO[C@H]1CN(c2ccc(Br)nn2)CC[C@H]1NC(=O)c1[nH]c(C)c(Cl)c1Cl` [Compound 18, N-((3S,4R)-1-(6-Bromopyridazin-3-yl)-3-methoxypiperidin-4-yl)-3,4-dichloro-5-methyl-1H-pyrrole-2-carboxamide], for which the IC50 in experiment [1] stood at 0.13 ± 0.017 µM; in experiment [2], 7.42 ± 1.01 µM. Moreover, the results for the minimal inhibitory concentration (MIC) in experiment [3] and in experiment [4] were 0.03 µg/mL (≈ 0.0648 µM) and 4 µg/mL (≈ 8.64 µM), respectively.

Turning to `CO[C@H]1CN(c2ccc(C(F)(F)F)nn2)CC[C@H]1NC(=O)c1[nH]c(C)c(Cl)c1Cl` [Compound 19, 3,4-Dichloro-N-((3S,4R)-3-methoxy-1-(6-(trifluoromethyl)pyridazin-3-yl)piperidin-4-yl)-5-methyl-1H-pyrrole-2-carboxamide], the figures for the IC50 in experiment [1] and in experiment [2] were 0.12 ± 0.047 µM and 9.31 ± 0.923 µM, respectively. The minimal inhibitory concentration (MIC) is 0.03 µg/mL (≈ 0.0663 µM) in experiment [3] and 16 µg/mL (≈ 35.4 µM) in experiment [4].

Consider `CO[C@H]1CN(c2ccc(C#N)nn2)CC[C@H]1NC(=O)c1[nH]c(C)c(Cl)c1Cl` [Compound 20, 3,4-Dichloro-N-((3S,4R)-1-(6-cyanopyridazin-3-yl)-3-methoxypiperidin-4-yl)-5-methyl-1H-pyrrole-2-carboxamide], for which the results for the half-inhibitory concentration (IC50) in experiment [1] and in experiment [2] were 0.701 ± 0.248 µM and greater than 10 µM, respectively. Moreover, the MIC is 0.06 µg/mL (≈ 0.147 µM) in experiment [3] and greater than 128 µg/mL in experiment [4].

Take `CO[C@H]1CN(c2ccc(C(C)=O)nn2)CC[C@H]1NC(=O)c1[nH]c(C)c(Cl)c1Cl` [Compound 21, N-((3S,4R)-1-(6-Acetylpyridazin-3-yl)-3-methoxypiperidin-4-yl)-3,4-dichloro-5-methyl-1H-pyrrole-2-carboxamide]: the IC50 is 0.825 ± 0.303 µM in experiment [1] and greater than 10 µM in experiment [2]. For the same compound, the figures for the minimal inhibitory concentration (MIC) in experiment [3] and in experiment [4] were 0.06 µg/mL (≈ 0.141 µM) and greater than 128 µg/mL, respectively.

Turning to `CO/N=C(\C)c1ccc(N2CC[C@@H](NC(=O)c3[nH]c(C)c(Cl)c3Cl)[C@@H](OC)C2)nn1` [Compound 24, 3,4-Dichloro-N-((3S,4R)-3-methoxy-1-(6-((E)-1-(methoxyimino)ethyl)pyridazin-3-yl)piperidin-4-yl)-5-methyl-1H-pyrrole-2-carboxamide], the IC50 in experiment [1] is 2.07 ± 0.568 µM; in experiment [2], greater than 10 µM. The figures for the minimal inhibitory concentration (MIC) in experiment [3] and in experiment [4] were 0.03 µg/mL (≈ 0.0659 µM) and greater than 128 µg/mL, respectively.

With `CO[C@H]1CN(c2ccc(/C(C)=N/OCC(=O)O)nn2)CC[C@H]1NC(=O)c1[nH]c(C)c(Cl)c1Cl` [Compound 25, 2-((((E)-1-(6-((3S,4R)-4-(3,4-Dichloro-5-methyl-1H-pyrrole-2-carboxamido)-3-methoxypiperidin-1-yl)pyridazine-3-yl)ethylidene)amino)oxy)acetic acid], the IC50 in experiment [1] was 0.172 ± 0.056 µM; in experiment [2], greater than 10 µM. In addition, the results for the MIC in experiment [3] and in experiment [4] were 0.25 µg/mL (≈ 0.501 µM) and greater than 128 µg/mL, respectively.

As for `CO[C@H]1CN(c2ccc(CO)nn2)CC[C@H]1NC(=O)c1[nH]c(C)c(Cl)c1Cl` [Compound 27, 3,4-Dichloro-N-((3S,4R)-1-(6-(hydroxymethyl)pyridazin-3-yl)-3-methoxypiperidin-4-yl)-5-methyl-1H-pyrrole-2-carboxamide], the IC50 amounted to 0.094 ± 0.04 µM in experiment [1] and 5.11 ± 0.545 µM in experiment [2]. Further, the figures for the MIC in experiment [3] and in experiment [4] were 0.03 µg/mL (≈ 0.0724 µM) and 4 µg/mL (≈ 9.66 µM), respectively.

Regarding `CNC(=O)c1ccc(N2CC[C@@H](NC(=O)c3[nH]c(C)c(Cl)c3Cl)[C@@H](OC)C2)nn1` [Compound 30, 6-((3S,4R)-4-(3,4-Dichloro-5-methyl-1H-pyrrole-2-carboxamido)-3-methoxypiperidin-1-yl)-N-methylpyridazine-3-carboxamide], the half-maximal inhibitory concentration (IC50) in experiment [1] was 0.696 ± 0.056 µM; in experiment [2] it was greater than 10 µM. Besides, the values for the MIC in experiment [3] and in experiment [4] were 0.125 µg/mL (≈ 0.283 µM) and 16 µg/mL (≈ 36.3 µM), respectively.

With `CCNC(=O)c1ccc(N2CC[C@@H](NC(=O)c3[nH]c(C)c(Cl)c3Cl)[C@@H](OC)C2)nn1` [Compound 31, 6-((3S,4R)-4-(3,4-Dichloro-5-methyl-1H-pyrrole-2-carboxamido)-3-methoxypiperidin-1-yl)-N-ethylpyridazine-3-carboxamide], the concentration for half-maximal inhibition (IC50) in experiment [1] is 0.576 ± 0.045 µM; in experiment [2], greater than 10 µM. The figures for the MIC in experiment [3] and in experiment [4] were 0.125 µg/mL (≈ 0.275 µM) and greater than 128 µg/mL, respectively.

As to `CO[C@H]1CN(c2ccc(C(=O)NCCN)nn2)CC[C@H]1NC(=O)c1[nH]c(C)c(Cl)c1Cl` [Compound 32, N-(2-Aminoethyl)-6-((3S,4R)-4-(3,4-dichloro-5-methyl-1H-pyrrole-2-carboxamido)-3-methoxypiperidin-1-yl)pyridazine-3-carboxamide], the 50% inhibitory concentration (IC50) in experiment [1] and in experiment [2] was greater than 10 µM in each case. In addition, the MIC in experiment [3] is 32 µg/mL (≈ 68 µM); in experiment [4] it was 64 µg/mL (≈ 136 µM).

`CO[C@H]1CN(c2ccc(C(=O)N3CCNCC3)nn2)CC[C@H]1NC(=O)c1[nH]c(C)c(Cl)c1Cl` [Compound 33, 3,4-Dichloro-N-((3S,4R)-3-methoxy-1-(6-(piperazine-1-carbonyl)pyridazin-3-yl)piperidin-4-yl)-5-methyl-1H-pyrrole-2-carboxamide]: the IC50 in experiment [1] was 1.09 ± 0.146 µM; in experiment [2], greater than 10 µM. For the same compound, the MIC in experiment [3] stood at 0.25 µg/mL (≈ 0.504 µM); in experiment [4], 32 µg/mL (≈ 64.5 µM).

As to `CO[C@H]1CN(c2ccc(CN)nn2)CC[C@H]1NC(=O)c1[nH]c(C)c(Cl)c1Cl` [Compound 34, N-((3S,4R)-1-(6-(Aminomethyl)pyridazin-3-yl)-3-methoxypiperidin-4-yl)-3,4-dichloro-5-methyl-1H-pyrrole-2-carboxamide], the IC50 in experiment [1] and in experiment [2] was greater than 10 µM throughout. The minimal inhibitory concentration (MIC) is 32 µg/mL (≈ 77.4 µM) in experiment [3] and greater than 128 µg/mL in experiment [4].

With `CO[C@H]1CN(c2ccc(C(=N)N)nn2)CC[C@H]1NC(=O)c1[nH]c(C)c(Cl)c1Cl` [Compound 35, N-((3S,4R)-1-(6-Carbamimidoylpyridazin-3-yl)-3-methoxypiperidin-4-yl)-3,4-dichloro-5-methyl-1H-pyrrole-2-carboxamide], the IC50 in experiment [1] and in experiment [2] was greater than 10 µM throughout. Further, the MIC in experiment [3] was 32 µg/mL (≈ 75.1 µM); in experiment [4], greater than 128 µg/mL.

In the case of `CO[C@H]1CN(c2ccc(-c3nn[nH]n3)nn2)CC[C@H]1NC(=O)c1[nH]c(C)c(Cl)c1Cl` [Compound 36, N-((3S,4R)-1-(6-(2H-Tetrazol-5-yl)pyridazin-3-yl)-3-methoxypiperidin-4-yl)-3,4-dichloro-5-methyl-1H-pyrrole-2-carboxamide], the half-inhibitory concentration (IC50) in experiment [1] and in experiment [2] was greater than 10 µM in each case. Also, the figures for the minimal inhibitory concentration (MIC) in experiment [3] and in experiment [4] were 0.5 µg/mL (≈ 1.11 µM) and 16 µg/mL (≈ 35.4 µM), respectively.
